How the values were obtained:
teat area of animals = conditions: in vivo
[1] = pH at which the solution buffers out; format: physicochemical; conditions: in solution, residual on teat surface

## Cc1ccc(S(=O)(=O)[N-]Cl)cc1.[Na+] [CHT, Chloramine T]
Teat area of animals
  irritation of the teat area: do not irritate the teat area
[1]
  pH at which it naturally buffers out: about 9
